Test results as given in ChEMBL document CHEMBL3301555, “MMV Malaria Box screening in pLDH viability assay against Plasmodium falciparum gametocytes”.

Tested on: Plasmodium falciparum
Assay: MMV: Measure of pLDH activity as indication of parasite viability. Gametocytogenesis of 3D7 Plasmodium falciparum strain was induced in vitro and asexual parasites were depleted with N-acetylglucosamine. Gametocytes were treated with dihydroartemisinin, epoxomicin, methylene blue, primaquine, puromycin or chloroquine in 96-well plates and the pLDH activity was evaluated using a modified Makler protocol. Mosquito infectivity was measured by the standard membrane feeding assay.
Type: functional
Design: concentration or dose not given beside the values

Compound	Growth Inhibition [%]
COc1ccccc1CNC(=O)C1c2ccccc2C(=O)N(CC(C)C)C1c1cccs1 (stereo unspecified)	12.474
COc1ccc(-c2nc(N3CCN(C(=O)C4CCCCC4)CC3)c3c4c(sc3n2)CCCC4)cc1	-0.9006
Cc1ccc(Cl)cc1N1CCN(CCCNC(=O)C2CCN(c3nc4ccccc4[nH]3)CC2)CC1	21.502
CCOc1ccc(C2N(C)c3ccccc3N2C)cc1	9.8332
CCC1(C)CC(CCNCc2ccccc2O)(c2ccc(C)cc2)CCO1 (stereo unspecified)	26.52
CCN(CC)CCNc1ccnc2cc3ccccc3cc12.O=P(O)(O)O	12.0652
COc1ccccc1N1C(=N)SC(=Cc2ccc(OCc3ccccc3F)cc2)C1=O	14.0558
Cc1ccc(CSCc2ccc(C(=O)NC3CC3)o2)cc1	9.7118
COc1ccc(C(C)=O)cc1N1C(=O)C2C(C1=O)C1(c3ccccc3)C(=O)C2(c2ccccc2)C(c2ccc(C)cc2)=C1c1ccc(C)cc1 (stereo unspecified)	-2.6232
CCOC(=O)C1CCN(C(=O)CN2C(=O)c3ccccc3C2c2c[nH]c3ccccc23)CC1 (stereo unspecified)	48.711
CCOc1c(Cl)cc(CNC(C)C(O)c2ccccc2)cc1OC (stereo unspecified)	22.4902
O=C(Nc1ccc(-c2nc3cc(NC(=O)c4ccc(Cl)cc4)ccc3[nH]2)cc1)c1ccc(Cl)cc1	18.844
CCN(CC)CCNc1ncnc2c1[nH]c1ccc(Br)cc12	8.817
Cl.OC(CNCc1ccccc1)Cn1c2ccccc2c2ccccc21 (stereo unspecified)	33.103
COc1cccc(Nc2nc(NCCO)c3ccccc3n2)c1.Cl	21.665
CC(O)(c1ccc(Cl)cc1)C(CN1CCCCC1)c1ccccc1.Cl (stereo unspecified)	18.9754
COc1ccccc1CNC(=O)CCn1c(=O)[nH]c2ccsc2c1=O	-5.0228
COCCNCC(O)Cn1c2ccc(Cl)cc2c2cc(Cl)ccc21 (stereo unspecified)	45.598
Br.Cc1ccc(C)c(-c2csc(Nc3ccc(C)c(C)c3)n2)c1	-6.2508
Cc1ccc(C)c(Cn2c(N3CCC(C(=O)NCc4cccs4)CC3)nc3ccccc32)c1	5.2598
CN(C)c1ccc(N2C(N)=NC(N)=NC2(C)C)cc1	5.041
CCOC(=O)C1(Cc2ccccc2)CCN(Cc2cccc(OC)c2O)CC1	37.59
CCOc1cccc2sc(N(Cc3cccnc3)C(=O)C3CCCCC3)nc12	1.8442
CCCCCCOC(=O)C1=C(C)NC(=O)NC1c1ccccc1F (stereo unspecified)	6.2916

Compound	Growth Inhibition [%]
CCCCOC(=O)c1ccc(Nc2cc(C)nc3ccc(OC)cc23)cc1	15.2218
Cc1cc(Nc2ccc(OCc3ccccc3)cc2)nc2cc(O)ccc12	36.4644
Oc1ccc(C(=C(Cl)Cl)c2ccc(O)cc2)cc1	9.2564
Cc1ccc(Cn2c(N3CCC(C(=O)NCc4cccs4)CC3)nc3ccccc32)cc1	-1.5746
CCC(C)NCC(O)(c1ccc(Cl)cc1)c1ccc(Cl)cc1 (stereo unspecified)	29.3926
COc1ccc(Nc2cc(C)nc(NCc3ccccc3)n2)cc1	8.4962
O=C1CC(O)(C(F)(F)C(F)(F)F)Oc2ccccc21 (stereo unspecified)	1.4958
CCN(CC)CCNc1ccnc2cc(Cl)ccc12	9.9324
CCOC(=O)c1cn(CC)c2cc(N(C)CCc3ccc(OC)c(OC)c3)c(F)cc2c1=O	25.5006
O=C(Nc1cccc(C2=NCCN2)c1)Nc1cccc(C2=NCCN2)c1 [IMIDOCARB]	24.1816
Nc1ccc(-c2nc3cc(Cc4ccc5[nH]c(-c6ccc(N)cc6)nc5c4)ccc3[nH]2)cc1	9.5548
CCCC(c1nnnn1C1CCCCC1)N1CCN(C(=O)c2ccco2)CC1.Cl (stereo unspecified)	10.3688
CN1C=C(c2ccc3ccccc3n2)C(c2c[nH]c3ccccc23)c2ccccc21 (stereo unspecified)	12.6514
Cc1c(C)n(CC(O)CNC2CCCCC2C)c2ccccc12 (stereo unspecified)	42.7668
O=C(CCc1ccco1)NC1CCN(CC2(c3ccc(Cl)cc3)CCC2)CC1	18.8072
C=C(C)CCC(C)N1CCC(N2CCC(C(=O)NCCc3ccccc3)CC2)CC1 (stereo unspecified)	9.4772
Cn1c(=O)c2cc(C(=O)NCCCN3CCCCCC3)sc2c2ccccc21	15.852
CCOc1ccc(-c2nc(NC(=O)c3cccc(S(C)(=O)=O)c3)sc2C)cc1	10.5858
COC(=O)c1ccc(Cl)c2c1C1C=CCC1C(c1cccc3ccccc13)N2 (stereo unspecified)	-3.8852
COc1ccc(CCN2C(=O)c3[nH]nc(-c4cc(Cl)c(C)cc4O)c3C2c2ccccc2F)cc1 (stereo unspecified)	16.338
CCOc1ccc(-c2nonc2NC(=O)c2cccc(C)c2)cc1OCC	30.014
CCOc1cc2c(cc1OCC)C(c1cc(C)c(O)c(C)c1)NCC2.Cl (stereo unspecified)	25.854
O=c1cc(NC2CCN(CCCc3ccccc3)CC2)c2cc(Cl)ccc2o1	18.578
CN1CCN(c2nc(Nc3ccc(O)cc3)nc3ccccc23)CC1.Cl	11.7422

Compound	Growth Inhibition [%]
Clc1ccc2[nH]c3c(NCCCN4CCOCC4)ncnc3c2c1	9.617
Cc1cc(N(C)C)nc(Nc2ccc(NC(=O)Nc3ccccc3)cc2)n1	16.1034
Cc1cc(Nc2ccc(Cl)cc2)n2nc(C(F)(F)F)nc2n1	7.7522
COc1ccc2nc(C)cc(Nc3cccc(O)c3)c2c1.Cl	10.892
O=C(Nc1ccc(CN2CCOCC2)cc1)c1ccc(-c2cc(Cl)ccc2Cl)o1	12.3128
CCCCCC(=O)N1c2ccccc2N=C2CC(c3ccc(OC)c(OC)c3)CC(O)=C2C1c1ccc(C(F)(F)F)cc1 (stereo unspecified)	33.4948
CNCCCNc1ccnc2cc(Cl)ccc12	-4.352
COc1ccc(Nc2nc(NCc3ccccc3)c3ccccc3n2)cc1	17.5424
Cc1cc(Nc2ccc3ccccc3c2)n2ncnc2n1	-5.4308
CN(C)c1ccc(-c2nc3cc(N)ccc3[nH]2)cc1	18.3914
COCCn1c(C)nc2ccccc2c1=O	4.3894
CC(C)=CCN1CCC(C(=O)Nc2ccc(-c3nc4ccccc4[nH]3)cc2)CC1	16.6684
c1ccc(Cn2c(N=Nc3c(Nc4ccccc4)ccc4ccccc34)nc3ccccc32)cc1	28.0754
COc1ccc(C(O)(CCC(C)C)C(CN2CCOCC2)c2ccc(Cl)cc2)cc1.Cl (stereo unspecified)	9.238
COc1ccc(C(=O)Nc2ccc3nc(N4CCCCC4)cc(C)c3c2)cc1OC	11.0486
COc1cc(C(=O)Nc2ccc(-c3nc4ccccc4[nH]3)cc2)cc(OC)c1OC	13.7592
O=C(Nc1nc(-c2ccccn2)cs1)c1ccccc1Br	29.0858
COc1ccc(-c2nc3cc(Cc4ccc5[nH]c(-c6ccc(OC)cc6)nc5c4)ccc3[nH]2)cc1	4.7376
O=C(NC1CCN(Cc2ccccc2)CC1)c1cc2nc(-c3ccc(Cl)s3)cc(C(F)(F)F)n2n1	6.5116
Brc1ccc(Nc2nc3ccccc3nc2Nc2ccc(Br)cc2)cc1	6.7896
Cl.Cn1c(=O)n(C)c2cc(CNCCNc3ccnc4cc(Cl)ccc34)ccc21	35.6028
Cc1ccc(C2CC(C(F)(F)F)n3nc(C(=O)N4CCN(C(c5ccccc5)c5ccccc5)CC4)cc3N2)cc1 (stereo unspecified)	4.7565
COc1cccc(C(=O)Nc2ccc(-c3nc4ccccc4[nH]3)cc2)c1	15.5734
